From the NIST ThermoML archive (doi:10.1021/je0340912)
Values joined by “and” are separate entries in the source; they are usually repeats but may differ in a detail not shown here. Identical values can stand only once. Numbers after ± are expanded uncertainties.

Tests used:
[1] = Liquid; for mass density: 101.33 kPa
[2] = excess molar enthalpy (molar enthalpy of mixing); xn = mol fraction of the nth substance listed; conditions: 101.32 kPa, Liquid, Flow calorimetry

C=C(C)CC(C)(C)C [2,4,4-trimethyl-1-pentene]
[1]
Conditions	mass density [kg/m3]	vapor or sublimation pressure
298.15 K	711.3 ± 1	–
374.34 K	–	101.4 ± 0.3 kPa and 101.3 ± 0.3 kPa

C=C(C)CC(C)(C)C [2,4,4-trimethyl-1-pentene] + CC(C)(C)O
[2], 300.15 K
Conditions	excess molar enthalpy [kcal/mol]
x2 = 0.0529	0.125 ± 0.00148
x2 = 0.0811	0.151 ± 0.00174
x2 = 0.1559	0.188 ± 0.00213
x2 = 0.2264	0.208 ± 0.00232
x2 = 0.2928	0.218 ± 0.00239
x2 = 0.3555	0.225 ± 0.00239
x2 = 0.4148	0.227 ± 0.00263
x2 = 0.471	0.228 ± 0.00263
x2 = 0.5241	0.226 ± 0.00263
x2 = 0.5242	0.225 ± 0.00239
x2 = 0.5747	0.222
x2 = 0.6229	0.216 ± 0.00239
x2 = 0.6687	0.207 ± 0.00232
x2 = 0.7124	0.195 ± 0.0022
x2 = 0.7541	0.18 ± 0.00203
x2 = 0.7939	0.161 ± 0.00186
x2 = 0.832	0.141 ± 0.00165
x2 = 0.8685	0.118 ± 0.00141
x2 = 0.9034	0.0915 ± 0.00115
x2 = 0.9369	0.0626 ± 0.00086
x2 = 0.9691	0.0326 ± 0.000574

C=C(C)CC(C)(C)C [2,4,4-trimethyl-1-pentene] + CCC(C)O
[2], 298.15 K
Conditions	excess molar enthalpy [kcal/mol]
x2 = 0.0544	0.13 ± 0.00153
x2 = 0.0832	0.159 ± 0.00184
x2 = 0.1597	0.202 ± 0.00225
x2 = 0.2314	0.227 ± 0.00263
x2 = 0.2987	0.243 ± 0.00263
x2 = 0.3621	0.251 ± 0.00263
x2 = 0.4217	0.252 ± 0.00287
x2 = 0.4781	0.249 ± 0.00263
x2 = 0.5313	0.241 ± 0.00263
x2 = 0.5818	0.229 ± 0.00263
x2 = 0.6296	0.213 ± 0.00237
x2 = 0.675	0.196 ± 0.0022
x2 = 0.7182	0.177 ± 0.00201
x2 = 0.7593	0.156 ± 0.00179
x2 = 0.7986	0.134 ± 0.00158
x2 = 0.836	0.112 ± 0.00136
x2 = 0.8717	0.0891 ± 0.00112
x2 = 0.9059	0.0665 ± 0.000908
x2 = 0.9386	0.0437 ± 0.000669
x2 = 0.9699	0.0219 ± 0.000454

CC(C)(C)O [2-methylpropan-2-ol]
[1]
Conditions	mass density [kg/m3]	vapor or sublimation pressure [kPa]
303.15 K	775.5 ± 0.6	–
355.13 K	–	100.6 ± 0.2

CCC(C)O (configuration not stated) [butan-2-ol]
[1]
Conditions	mass density [kg/m3]	vapor or sublimation pressure [kPa]
298.15 K	802.4 ± 0.6	–
372.14 K	–	100.5 ± 0.2
